Test results from PubChem BioAssay AID1259407 (Chemical Carcinogenesis Research Information System (CCRIS), 2018).
Calls of active or inactive are those of the source. The rule behind the calls is not given here.

Tested on: CCRIS mutagenicity, Ames/micronucleus/aberration tests
Assay: CCRIS mutagenicity studies
[1] = Test System: AMES SALMONELLA TYPHIMURIUM, Strain/Indicator: TA98, Metabolic Activation: NONE, Method: STANDARD PLATE
[2] = Test System: AMES SALMONELLA TYPHIMURIUM, Strain/Indicator: TA100, Metabolic Activation: NONE, Method: STANDARD PLATE
[3] = Test System: AMES SALMONELLA TYPHIMURIUM, Strain/Indicator: TA1537, Metabolic Activation: NONE, Method: STANDARD PLATE
[4] = Test System: AMES SALMONELLA TYPHIMURIUM, Strain/Indicator: TA1538, Metabolic Activation: NONE, Method: STANDARD PLATE
[5] = Test System: AMES SALMONELLA TYPHIMURIUM, Strain/Indicator: TA100, Metabolic Activation: RAT, LIVER, S-9, AROCLOR 1254, Method: STANDARD PLATE
[6] = Test System: AMES SALMONELLA TYPHIMURIUM, Strain/Indicator: TA1535, Metabolic Activation: NONE, Method: STANDARD PLATE
[7] = Test System: AMES SALMONELLA TYPHIMURIUM, Strain/Indicator: TA1535, Metabolic Activation: RAT, LIVER, S-9, AROCLOR 1254, Method: STANDARD PLATE

In the case of CC(=O)Nc1ccc2[nH]c3ccccc3c2c1, the mutagenic call [1] is reported as “inactive; negative”, the mutagenic call (Test System: AMES SALMONELLA TYPHIMURIUM, Strain/Indicator: TA98, Metabolic Activation: RAT, LIVER, S-9, PHENOBARBITAL, Method: STANDARD PLATE) is reported as “active; positive” and the mutagenic call [2] is reported as “inactive; negative”. For the same compound, the mutagenic call (Test System: AMES SALMONELLA TYPHIMURIUM, Strain/Indicator: TA100, Metabolic Activation: RAT, LIVER, S-9, PHENOBARBITAL, Method: STANDARD PLATE) was “inactive; negative”, the mutagenic call [3] was “inactive; negative” and the mutagenic call (Test System: AMES SALMONELLA TYPHIMURIUM, Strain/Indicator: TA1537, Metabolic Activation: RAT, LIVER, S-9, PHENOBARBITAL, Method: STANDARD PLATE) was “inactive; negative”. The mutagenic call [4] was “inactive; negative”, the mutagenic call (Test System: AMES SALMONELLA TYPHIMURIUM, Strain/Indicator: TA1538, Metabolic Activation: RAT, LIVER, S-9, PHENOBARBITAL, Method: STANDARD PLATE) was “active; positive” and the mutagenic call (Test System: AMES SALMONELLA TYPHIMURIUM, Strain/Indicator: TA1977, Metabolic Activation: NONE, Method: STANDARD PLATE) was “inactive; negative”. For the same compound, the mutagenic call (Test System: AMES SALMONELLA TYPHIMURIUM, Strain/Indicator: TA1977, Metabolic Activation: RAT, LIVER, S-9, PHENOBARBITAL, Method: STANDARD PLATE) was “inactive; negative”.

With OC[C@H]1O[C@@H](n2cnc3c(NC[C@H](O)COc4cccc5ccccc45)ncnc32)[C@H](O)[C@@H]1O the mutagenic call (Test System: AMES SALMONELLA TYPHIMURIUM, Strain/Indicator: TA97, Metabolic Activation: NONE, Method: STANDARD PLATE) was “inactive; negative”, the mutagenic call (Test System: AMES SALMONELLA TYPHIMURIUM, Strain/Indicator: TA97, Metabolic Activation: RAT, LIVER, S-9, AROCLOR 1254, Method: STANDARD PLATE) was “inactive; negative” and the mutagenic call [1] was “inactive; negative”. The mutagenic call (Test System: AMES SALMONELLA TYPHIMURIUM, Strain/Indicator: TA98, Metabolic Activation: RAT, LIVER, S-9, AROCLOR 1254, Method: STANDARD PLATE) was “inactive; negative”, the mutagenic call [2] was “inactive; negative” and the mutagenic call [5] was “inactive; negative”. The mutagenic call [6] was “inactive; negative”, the mutagenic call [7] was “inactive; negative” and the mutagenic call [4] was “inactive; negative”. For the same compound, the mutagenic call (Test System: AMES SALMONELLA TYPHIMURIUM, Strain/Indicator: TA1538, Metabolic Activation: RAT, LIVER, S-9, AROCLOR 1254, Method: STANDARD PLATE) was “inactive; negative”, the mutagenic call (Test System: CHINESE HAMSTER OVARY, Strain/Indicator: CHO-KL-BH4 (HGPRT), Metabolic Activation: NONE) was “inactive; negative” and the mutagenic call (Test System: CHINESE HAMSTER OVARY, Strain/Indicator: CHO-KL-BH4 (HGPRT), Metabolic Activation: RAT, LIVER, S-9, AROCLOR 1254) was “inactive; negative”. The mutagenic call (Test System: MOUSE LYMPHOMA, Strain/Indicator: L5178Y (TK+/TK-), Metabolic Activation: NONE, Method: SUSPENSION/PLATE) was “inactive; negative” and the mutagenic call (Test System: MOUSE LYMPHOMA, Strain/Indicator: L5178Y (TK+/TK-), Metabolic Activation: RAT, LIVER, S-9, AROCLOR 1254, Method: SUSPENSION/PLATE) was “active; positive”.

With O=P(O)(OCC(Br)CBr)OCC(Br)CBr (stereo unspecified) the mutagenic call [5] was “active; positive” and the mutagenic call [7] was “active; positive”.

COc1ccc(-c2nc(-c3ccccc3)c(-c3ccccc3)[nH]2)cc1 was tested, and the mutagenic call [1] was “active; positive”, the mutagenic call (Test System: AMES SALMONELLA TYPHIMURIUM, Strain/Indicator: TA98, Metabolic Activation: RAT LIVER S-9, 3-METHYLCHOLANTHRENE, SODIUM PHENOBARBITAL, Method: STANDARD PLATE) was “inactive; negative” and the mutagenic call [2] was “active; positive”. For the same compound, the mutagenic call (Test System: AMES SALMONELLA TYPHIMURIUM, Strain/Indicator: TA100, Metabolic Activation: RAT LIVER S-9, 3-METHYLCHOLANTHRENE, SODIUM PHENOBARBITAL, Method: STANDARD PLATE) was “inactive; negative”.

In the case of O=C1c2ccccc2C(=O)c2c1cc(O)c(C(=O)O)c2O, the mutagenic call (Test System: AMES SALMONELLA TYPHIMURIUM, Strain/Indicator: TA98, Metabolic Activation: NONE, Method: PREINCUBATION) is reported as “inactive; negative”, the mutagenic call (Test System: AMES SALMONELLA TYPHIMURIUM, Strain/Indicator: TA98, Metabolic Activation: RAT, LIVER, S-9, PCB, Method: PREINCUBATION) is reported as “inactive; negative” and the mutagenic call (Test System: AMES SALMONELLA TYPHIMURIUM, Strain/Indicator: TA100, Metabolic Activation: NONE, Method: PREINCUBATION) is reported as “inactive; negative”. For the same compound, the mutagenic call (Test System: AMES SALMONELLA TYPHIMURIUM, Strain/Indicator: TA100, Metabolic Activation: RAT, LIVER, S-9, PCB, Method: PREINCUBATION) was “inactive; negative”.

For N[C@@H](CCS/C(Cl)=C/Cl)C(=O)O, the mutagenic call (Test System: AMES SALMONELLA TYPHIMURIUM, Strain/Indicator: TA2638, Metabolic Activation: NONE, Method: PREINCUBATION) was “inactive; negative” and the mutagenic call (Test System: AMES SALMONELLA TYPHIMURIUM, Strain/Indicator: TA2638, Metabolic Activation: RAT, KIDNEY, CYTOSOL, Method: PREINCUBATION) was “active; positive”.

In the case of O=Nn1cc(CCO)c2ccccc21, the mutagenic call (Test System: AMES SALMONELLA TYPHIMURIUM, Strain/Indicator: TA97A, Metabolic Activation: NONE, Method: STANDARD PLATE) is reported as “active; positive”, the mutagenic call [1] is reported as “active; positive” and the mutagenic call [2] is reported as “active; positive”. For the same compound, the mutagenic call [6] was “active; positive” and the mutagenic call [3] was “active; positive”.
